Laboratory results taken from ChEMBL document CHEMBL1130395, “Cannabinol derivatives: binding to cannabinoid receptors and inhibition of adenylylcyclase” (J Med Chem, 1997).
Active and inactive are the calls of the source. The rule behind the calls is not given here.

What was measured:
Cannabinoid receptor 2 [1] = biological target: T1, Cannabinoid receptor 2 (Homo sapiens, UniProt P34972); test: Effective concentration for inhibition of human Cannabinoid receptor 2-mediated adenylyl cyclase using African green monkey (COS-7) cells transfected with the cDNA of human CB2 receptor; assay type: functional
T1 sequence (P34972 whole entry): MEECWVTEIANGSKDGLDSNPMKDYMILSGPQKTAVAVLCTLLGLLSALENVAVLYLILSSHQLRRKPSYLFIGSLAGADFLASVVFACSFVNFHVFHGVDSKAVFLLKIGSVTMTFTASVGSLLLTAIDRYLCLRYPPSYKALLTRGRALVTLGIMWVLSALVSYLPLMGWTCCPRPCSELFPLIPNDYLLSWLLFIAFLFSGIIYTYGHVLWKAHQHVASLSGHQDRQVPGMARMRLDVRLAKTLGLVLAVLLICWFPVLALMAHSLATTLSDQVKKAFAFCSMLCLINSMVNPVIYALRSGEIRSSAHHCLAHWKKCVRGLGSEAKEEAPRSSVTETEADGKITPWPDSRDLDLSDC

Cannabinoid receptor 1 [2] = biological target: T2, Cannabinoid receptor 1 (Rattus norvegicus, UniProt P20272); test: Effective concentration for inhibition of Cannabinoid receptor 1-mediated adenylyl cyclase activity using African green monkey (COS-7) cells transfected with the cDNA of rat CB1 receptor; assay type: functional
T2 sequence (P20272 whole entry): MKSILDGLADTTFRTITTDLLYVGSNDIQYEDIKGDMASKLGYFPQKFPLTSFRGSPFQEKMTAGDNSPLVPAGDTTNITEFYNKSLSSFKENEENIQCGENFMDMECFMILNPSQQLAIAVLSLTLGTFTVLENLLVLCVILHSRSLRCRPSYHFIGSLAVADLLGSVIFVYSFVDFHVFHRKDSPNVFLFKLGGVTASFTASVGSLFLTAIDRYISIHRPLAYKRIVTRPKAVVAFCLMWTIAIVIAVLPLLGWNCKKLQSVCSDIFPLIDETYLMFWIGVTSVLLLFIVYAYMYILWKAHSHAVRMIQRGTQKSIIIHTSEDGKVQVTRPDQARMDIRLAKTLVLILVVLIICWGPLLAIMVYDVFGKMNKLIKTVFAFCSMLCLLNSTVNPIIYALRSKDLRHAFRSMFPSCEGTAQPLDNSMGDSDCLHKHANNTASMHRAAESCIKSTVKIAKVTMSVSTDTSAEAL

Cannabinoid receptor 1 [3] = biological target: T2, Cannabinoid receptor 1; test: Binding affinity for Cannabinoid receptor 1 using African green monkey (COS-7) cells transfected with the cDNA of […].
Cannabinoid receptor 2 [4] = biological target: T1, Cannabinoid receptor 2; test: Binding affinity to Cannabinoid receptor 2 using African green monkey (COS-7) cells Chinese hamster ovary(CHO) cells transfected with the cDNA of human CB2; assay type: cell-based
Cannabinoid receptor 1 [5] = biological target: T2, Cannabinoid receptor 1; test: Binding to Cannabinoid receptor 1 using African green monkey (COS-7) cells transfected with the cDNA of rat CB1.; assay type: cell-based
Cannabinoid receptor 2 [6] = biological target: T1, Cannabinoid receptor 2; test: Inhibitory affect of 1 uM of the substance against African green monkey (COS-7) cells Chinese hamster ovary(CHO) cells transfected with the cDNA of human Cannabinoid receptor 2; assay type: cell-based
Cannabinoid receptor 2 [7] = biological target: T1, Cannabinoid receptor 2; test: Inhibitory affect of 1 uM of the substance against human Cannabinoid receptor 2-mediated adenylyl cyclase using African green monkey (COS-7) cells transfected with the cDNA of human CB2 receptor; No inhibition; assay type: functional, cell-based
[8] = biological target: Cannabinoid receptor 1 (Rattus norvegicus) (UniProt P20272); test: Inhibitory affect of 1 uM of the substance against African green monkey (COS-7) cells transfected with the cDNA of rat Cannabinoid receptor 1; assay type: cell-based
Cannabinoid receptor 1 (Rattus norvegicus), sequence (P20272 whole entry): as above

[9] = biological target: Cannabinoid receptor 1 (Rattus norvegicus) (UniProt P20272); test: Inhibitory affect of 1 uM of the substance against Cannabinoid receptor 1-mediated adenylyl cyclase using African green monkey (COS-7) cells transfected with the cDNA of rat CB1 receptor; assay type: functional, cell-based
Cannabinoid receptor 2 [10] = biological target: T1, Cannabinoid receptor 2; test: Inhibitory activity of 1 uM against human Cannabinoid receptor 2-mediated adenylyl cyclase using African green monkey (COS-7) cells transfected with the cDNA of human CB2 receptor; assay type: functional, cell-based
Cannabinoid receptor 2 [11] = biological target: T1, Cannabinoid receptor 2; test: Inhibitory effect of 1 uM of the substance against African green monkey (COS-7) cells Chinese hamster ovary(CHO) cells transfected with the cDNA of human Cannabinoid receptor 2; assay type: cell-based
[12] = biological target: Cannabinoid receptor 1 (Rattus norvegicus) (UniProt P20272); test: Inhibitory affect of 1 uM 0f the substance against cDNA of rat Cannabinoid receptor 1
[13] = biological target: Cannabinoid receptor 1 (Rattus norvegicus) (UniProt P20272); test: Inhibitory affect of 1 uM of the substance against Cannabinoid receptor 1-mediated adenylyl cyclase using African green monkey (COS-7) cells transfected with the cDNA of rat CB1 receptor; No inhibition; assay type: functional, cell-based
Cannabinoid receptor 1 [14] = biological target: T2, Cannabinoid receptor 1; test: Binding affinity of compound towards Cannabinoid receptor 1 in african green monkey COS-7 cells transfected with cDNA of rat CB1 receptor; assay type: cell-based
Cannabinoid receptor 1 [15] = biological target: T2, Cannabinoid receptor 1; test: Binding affinity of compound towards Cannabinoid receptor 1 in rat brain synaptosomal membrane preparations; assay type: cell membranes
Cannabinoid receptor 2 [16] = biological target: T1, Cannabinoid receptor 2; test: Binding affinity of compound towards Cannabinoid receptor 2 in african green monkey COS-7 cells transfected with cDNA of human CB2 receptor; assay type: cell-based
Cannabinoid receptor 2 [17] = biological target: T1, Cannabinoid receptor 2; test: Inhibitory affect of 1 uM against African green monkey (COS-7) cells Chinese hamster ovary(CHO) cells transfected with the cDNA of human Cannabinoid receptor 2; assay type: cell-based
[18] = biological target: Cannabinoid receptor 1 (Rattus norvegicus) (UniProt P20272); test: Inhibitory affect of 1 uM againstAfrican green monkey (COS-7) cells transfected with the cDNA of rat Cannabinoid receptor 1; assay type: cell-based

| SMILES | EC50 (Cannabinoid receptor 2 [1]) [nM] | EC50 (Cannabinoid receptor 1 [2]) [nM] | Ki (Cannabinoid receptor 1 [3]) [nM] | Ki (Cannabinoid receptor 2 [4]) [nM] | Ki (Cannabinoid receptor 1 [5]) [nM] | inhibition (Cannabinoid receptor 2 [10]) [%] | further results |
| --- | --- | --- | --- | --- | --- | --- | --- |
| CCCCCCC(C)(C)c1cc(OC(C)=O)c2c(c1)OC(C)(C)c1ccc(C(=O)O)cc1-2 | 39.3 | 13.3 | 556 | 17.3 | 49.8 |  |  |
| CCCCCc1cc(O)c2c(c1)oc(=O)c1ccc(C)cc12 |  |  | > 10000 |  |  |  | inhibition (Cannabinoid receptor 2 [6]): 14%; inhibition (Cannabinoid receptor 2 [7]): inactive; inhibition [8]: 14%; inhibition [9]: 7% |
| CCCCCc1cc(O)c2c(c1)OC(C)(C)c1ccc(CO)cc1-2 |  | 58.1 | 189 | 26.6 | 38 | 20 |  |
| CCCCCc1cc(O)c2c(c1)OC(C)(C)c1ccc(C(=O)O)cc1-2 |  |  | 602 |  |  | 6 | inhibition (Cannabinoid receptor 2 [6]): 23%; inhibition [8]: < 2%; inhibition [9]: 10% |
| CCCCCCC(C)(C)c1cc(O)c2c(c1)OC(C)(C)[C@@H]1CCC(C)=CC21 (some centres undefined) | 1.01 | 0.58 | 2.6 | 0.199 | 0.241 |  |  |
| CCCCCCC(C)(C)c1cc(OC(C)=O)c2c(c1)OC(C)(C)[C@@H]1CC=C(C(=O)O)CC21 (some centres undefined) |  |  | > 10000 |  |  | 27 | inhibition (Cannabinoid receptor 2 [11]): 9%; inhibition [12]: 11%; inhibition [13]: inactive |
| CCCCCc1cc(O)c2c(c1)OC(C)(C)c1ccc(C)cc1-2 [CANNABINOL] | 261 | 120 |  |  |  |  | Ki (Cannabinoid receptor 1 [14]): 211 nM; Ki (Cannabinoid receptor 1 [15]): 392 nM; Ki (Cannabinoid receptor 2 [16]): 126 nM |
| CCCCCCC(C)(C)c1cc(O)c2c(c1)OC(C)(C)[C@@H]1CC=C(CO)CC21 (some centres undefined) |  | 0.035 | 0.19 |  | 0.1 |  |  |
| CCCCCCC(C)(C)c1cc(O)c2c(c1)OC(C)(C)[C@@H]1CC=C(C(=O)O)CC21 (some centres undefined) | 116 | 927 | 481 | 170 | 32.3 |  |  |
| CCCCCc1cc(O)c2c(c1)OC(C)(C)[C@@H]1CCC(C)=C[C@@H]21 |  |  |  |  |  | 21 |  |
| CCCCCc1cc(OC(C)=O)c2c(c1)OC(C)(C)c1ccc(C(=O)O)cc1-2 |  |  | > 10000 |  |  | 2 | inhibition (Cannabinoid receptor 2 [17]): 19%; inhibition [18]: 35%; inhibition [9]: 3% |
| CCCCCCC(C)(C)c1cc(O)c2c(c1)OC(C)(C)c1ccc(C)cc1-2 | 0.79 | 0.18 | 3.3 | 1.5 | 2 |  |  |
| CCCCCCC(C)(C)c1cc(O)c2c(c1)OC(C)(C)c1ccc(CO)cc1-2 | 0.208 | 0.056 | 1.8 | 0.2 | 0.1 |  |  |
| CCCCCc1cc(O)c2c(c1)OC(C)(C)[C@@H]1CC=C(CO)CC21 (some centres undefined) |  | 39.9 | 33.4 | 7.4 | 25.8 | 19 |  |
| CCCCCCC(C)(C)c1cc(O)c2c(c1)oc(=O)c1ccc(C)cc12 | 4.6 | 9.6 | 72.5 | 17.3 | 32.7 |  |  |
| CCCCCCC(C)(C)c1cc(O)c2c(c1)OC(C)(C)c1ccc(C(=O)O)cc1-2 | 5.4 | 2.4 | 6.1 | 4.8 | 6.1 |  |  |
